Series [1] can be described thus: Solubility of peptides in sodium acetate-imidazole buffer. The following applies: 0.2 wt.% in 10 mM sodium acetate - 10 mM imidazole buffer (pH 7); shaken 2 h at 50 °C and overnight at room temperature; visual. Also noted: key: Soluble: totally soluble; Cloudy: cloudy: no totally soluble. It counts as physicochemical. As to the method: (§1) Emulsions were produced as reported in our previous work[31]. A total amount of 2 g of 5 wt.% fish oil-in-water emulsion stabilized with 0.2 wt.% potato peptides was produced. Peptides (0.2 wt.%) were dissolved in 10 mM sodium acetate – 10 mM imidazole buffer (pH 7). For that, the peptide solutions were shaken (100 rpm) for 2 h in water bath at 50 °C and overnight at room temperature to allow complete solubilization and rehydration of the peptides (when possible). Primary homogenization was done by adding the fish oil to the peptide-buffer solution and mixing at 18,000 rpm for 30 s by using a POLYTRON PT1200E (Kinematic Inc., New York, USA). Secondary homogenization was done using a MICROSON XL2000 sonicator equipped with a P1 probe (Misonix, Inc., New York, USA). Emulsions were homogenized at an amplitude of 75% (maximum amplitude of 180 μm), running 2 passes of 30 s with a break of 1 min between passes. During sonication the emulsions were surrounded by iced water to minimize the increase in temperature. […] All emulsions were produced and tested in triplicate.
Among the 38 peptides tested, 14 peptides were not totally soluble resulting in cloudy aqueous phases (e.g. no transparent solutions were obtained and white peptides particles could be observed). […] Differences in pH are due to the acidic impurities present in the synthetic peptides used, and to the insufficient capacity of the buffer employed to keep pH constant at 7. Nonetheless, sodium acetate-imidazole buffer was preferred to phosphate buffer in order to avoid interferences of phosphate buffer in oxidative stability studies as consequence of its chelating activity.

Series [2] in a line: Oxidative stability of emulsions by ESR (PBN-lipid spin adducts). The following applies: 5 wt.% fish oil-in-water emulsions; for oxidative stability of emulsion (generation of PBN-lipid spin adducts, in words, Fig. 4): storage 6 days in the dark at both 20 and 37 °C; for oxidative stability of emulsion at 20 °C compared to α-10, α-12 and γ-1 (in words): storage at 20 °C. As to the method: Oxidative stability of emulsions prepared with selected peptides was studied by electron spin resonance (ESR)[31]. ESR analysis was carried out using a benchtop MINISCOPE MS 5000 ESR spectrometer (MAGNETTECH GMBH, Germany). The instrument settings were as follows: magnetic field 320–360 mT, sweep time 60 s, modulation 0.2 mT and frequency 100 kHz. Emulsions were produced as described in section 2.3.1.2 and PBN was added as an ethanol solution (concentration of 50 mg/mL) to have 30 mM of PBN in the oil phase of the emulsion. The oxidative stability of the emulsions was determined during 6 days storage at 20 or 37 °C and samples were measured at days 0, 1 (only for 37 °C), 2, 4 and 6. For each sampling point, emulsion samples (50 μL) were transferred to borosilicate capillary tubes before they were introduced to the cavity of the ESR. Analyses were performed in triplicate at room temperature.

A short description of series [3]: Qualitative observation of creaming of emulsions. Type of series: physicochemical. The arrangement: key: 1: no creaming; 2: creaming; 3: oil layer above the emulsion; 4: phase separation. As to the method:
as §1
(§2) The droplet size distribution of the emulsions was measured by laser diffraction in a MASTERSIZER 2000 (Malvern Instruments, Ltd., Worcestershire, UK) at days 0, 1, 3 and 6 during storage in dark at room temperature (~22 °C)[31]. Each emulsion was diluted in recirculating water (3000 rpm), until it reached an obscuration of 12%. The refractive indices of sunflower oil (1.469) and water (1.330) were used as particle and dispersant, respectively. Results are given in volume mean diameter (D4,3). Measurements were made in triplicate. Due to the low volume of emulsions produced, creaming was determined qualitatively by observing the appearance of the emulsions. Peptides forming emulsions with small droplet sizes and no creaming were selected for further study.

Series [4] in a line: Zeta potential of emulsions. Type of series: physicochemical. The following applies: 5 wt.% fish oil-in-water emulsion, 0.2 wt.% peptide; after one day of storage; 10 μL emulsion in 5 mL buffer; 25 °C; mean ± SD, triplicate. The protocol: as §1
The zeta potential of the emulsions was measured after one day of storage in a ZETASIZER NANO ZS (Malvern instruments Ltd., Worcestershire, UK) with a DTS1070 cell at 25 °C[31]. […] The zeta potential range was set to −100 to +50 mV and the samples were analyzed with 100 runs. […]

Series [5] can be described thus: Droplet size of emulsions by laser diffraction. It counts as physicochemical. The following applies: mean ± SD, triplicate. As to the method:
as §1, §2

Series [6] can be described thus: pH of peptide-stabilized emulsions. Type of series: physicochemical. The following applies: 5 wt.% fish oil-in-water emulsion stabilized with 0.2 wt.% peptide in 10 mM sodium acetate - 10 mM imidazole buffer (pH 7). As to the method: as §1
Among the 38 peptides tested, 14 peptides were not totally soluble resulting in cloudy aqueous phases (e.g. no transparent solutions were obtained and white peptides particles could be observed). […]

Series [7] in a line: Iron (Fe2+) chelating activity. Type of series: biochemical. The following applies: 0.2 wt.% at pH 7; data not shown. The protocol: Peptides were dissolved in 10 mM sodium acetate - 10 mM imidazole buffer (pH 7) at 0.2 wt.%. 1 1,1-Diphenyl-2-picrylhydrazyl (DPPH) radical scavenging activity, iron (Fe^2+) chelating activity and ferric (Fe^3+) reducing power were measured as described elsewhere.

Results on 39 compounds are retold here after publication PMC6971092, “Identification of emulsifier potato peptides by bioinformatics: application to omega-3 delivery emulsions and release from potato industry side streams” (Scientific Reports, 2020).

Residues, ends and D or L forms follow the SMILES beside them. No end group written: not given here.

Regarding VHQNGKRRLALVKDNPLDVSFK [β-28], the Solubility of peptides result in series [1] was “Soluble”.

As for RDDNFCAKVGVVI [γ-35], the Solubility of peptides result in series [1] is reported as “Cloudy”. As for Sodium caseinate, the “oxidative stability of emulsion (generation of PBN-lipid spin adducts, in words, Fig. 4)” value in series [2] is listed as “highest oxidative stability”. Besides, the “Observations Day 0 (creaming)” value in series [3] (appearance of 5 wt.% fish oil-in-water emulsion, 0.2 wt.% peptide, day 0) was found to be 1. Also, in series [3] (appearance of emulsion, day 1 of storage at ~22 °C), the “Observations Day 1 (creaming)” value was determined as 1. Besides, the “Observations Day 6 (creaming)” value in series [3] (appearance of emulsion, day 6 of storage at ~22 °C) is reported as 1. The “Zeta potential (mV)” value in series [4] was −41.5 ± 1.1 mV. Moreover, the Solubility of peptides result in series [1] is listed as “Soluble”. Besides, in series [5] (as Day 0, day 1 of storage in dark at room temperature (~22 °C)), the “D4,3 (μm) Day 1” value turned out to be 1.1 ± 0.2 μm. Besides, the “D4,3 (μm) Day 3” value in series [5] (as Day 0, day 3 of storage in dark at room temperature (~22 °C)) turned out to be 0.9 ± 0.2 μm. The “D4,3 (μm) Day 6” value in series [5] (as Day 0, day 6 of storage in dark at room temperature (~22 °C)) came to 1.0 ± 0.2 μm. In series [5] (volume mean diameter, 5 wt.% fish oil-in-water emulsion, 0.2 wt.% peptide, pH 7 buffer, laser diffraction, day 0), the “D4,3 (μm) Day 0” value came out at 1.1 ± 0.2 μm. For the same compound, the pH of emulsion in series [6] is 6.9. The “Fe2+ chelating activity” value in series [7] was found to be 98.5 ± 0.2%. TPNENNRPFAAAKDIV [γ-47]: the Solubility of peptides result in series [1] is “Soluble”. For the compound LNIQFNI [β-24], the Solubility of peptides entry in series [1] is listed as “Cloudy”.

On to FCLKVGVIHQNGKRRLALVK [γ-49], for which, in series [2], the “oxidative stability of emulsion (generation of PBN-lipid spin adducts, in words, Fig. 4)” value is “highest oxidative stability”. For the same compound, the Solubility of peptides result in series [1] is recorded as “Soluble”. For the compound LNIQFNIPTPKLC [β-27], in series [2], the “oxidative stability of emulsion (generation of PBN-lipid spin adducts, in words, Fig. 4)” value is listed as “highest oxidative stability”. Further, in series [1], the Solubility of peptides result is listed as “Cloudy”.

With KYLMQVLQEKL [α-19], in series [1], the Solubility of peptides entry is recorded as “Soluble”. Still for that read-out and setting: for EALKRFAKLLSD [α-11] the value was “Soluble”. On to FAKLLSDRKKLRANK [γ-46], for which the Solubility of peptides entry in series [1] is on record as “Soluble”. On the same count and under the same terms, for GKELDPRLSYRI [β-26] the value was “Soluble”; for AKDIVPFYFEHGPHIFN [α-14], “Soluble”; for GIIPATILEFLEGQLQEVDNN [γ-48], “Soluble”.

On to DTNGKELNPNSSYRIISIGRGALGGDVYL [γ-42], for which the Solubility of peptides result in series [1] is reported as “Cloudy”. Same read-out and setting: for LGGDVYLGKSPNSDAPCP [β-31] the value was “Soluble”; for `CC[C@H](C)[C@H](NC(=O)[C@@H](NC(=O)[C@@H](NC(=O)CNC(=O)[C@@H](NC(=O)[C@H](CCCCN)NC(=O)[C@H](C)NC(=O)[C@H](CS)NC(=O)[C@H](Cc1ccccc1)NC(=O)[C@H](CC(N)=O)NC(=O)[C@H](CC(=O)O)NC(=O)[C@H](CC(=O)O)NC(=O)[C@H](CCCNC(=N)N)NC(=O)[C@@H](N)CS)C(C)C)C(C)C)C(C)C)C(=O)O` [γ-34] (H-CRDDNFCAKVGVVI-OH), “Cloudy”; for DDNFCAKVGVVIQ [β-30], “Cloudy”.

On to NPNSSYRIISI [γ-43], for which the Solubility of peptides result in series [1] is listed as “Soluble”. FCLKVGVVHQNGKRRLALVKDNP [γ-38]: the “oxidative stability of emulsion at 20 °C compared to α-10, α-12 and γ-1 (in words)” value in series [2] is on record as “significantly more oxidatively stable”. Moreover, the Solubility of peptides entry in series [1] is listed as “Soluble”. As to IPATILEFLEGQLQEVDNN [α-15], the Solubility of peptides result in series [1] is recorded as “Soluble”. On the same count and under the same terms, for VGVVIQNGKRR [γ-45] the value was “Soluble”.

In the case of LLTAMITTPNENNRP [γ-37], the Solubility of peptides entry in series [1] is “Soluble”. For the compound KDNPETYEEALKRFAKLLS [γ-41], in series [1], the Solubility of peptides result was “Soluble”. On to KKPVSKDSPETYEEALKRFAKLLSDRKKL [α-10], for which the “oxidative stability of emulsion (generation of PBN-lipid spin adducts, in words, Fig. 4)” value in series [2] was “lowest oxidative stability”. Also, the Solubility of peptides entry in series [1] was “Soluble”. As to ILEFLEGQLQEVDN [α-16], the Solubility of peptides entry in series [1] is given as “Soluble”. Turning to IGSSSHFGPHIFEGELLNIQFDIS [β-29], the Solubility of peptides entry in series [1] is reported as “Cloudy”. Still for that read-out and setting: for NRPFAAAKDIVPFYFEHGPHIFN [α-13] the value was “Soluble”; for DNFCAKVGVVIQNGKRR [γ-44], “Cloudy”. On the same count and under the same terms, for KYDGKYLMQVLQE [α-17] the value was “Cloudy”. As for DSPETYEEALKRFAKLLSD [α-12], in series [2], the “oxidative stability of emulsion (generation of PBN-lipid spin adducts, in words, Fig. 4)” value was “lowest oxidative stability”. Also, in series [1], the Solubility of peptides result is given as “Soluble”. Turning to ELDSRLSYRIISTFWGALGGDVYLGKSPN [β-20], in series [1], the Solubility of peptides entry is “Cloudy”.

Turning to HQNGKRRLALV [γ-39], the Solubility of peptides result in series [1] is on record as “Soluble”.

KYLMQVLQEKLGE [α-18]: in series [1], the Solubility of peptides result is recorded as “Cloudy”. For ELDSRLSYRIISTFWGALGGDVYL [β-21], the Solubility of peptides result in series [1] is listed as “Cloudy”. On to `CC(C)C[C@H](NC(=O)[C@H](CS)NC(=O)[C@H](Cc1ccccc1)NC(=O)[C@H](CCC(N)=O)NC(=O)[C@H](CC(=O)O)NC(=O)[C@H](CC(=O)O)NC(=O)[C@H](CO)NC(=O)[C@H](CO)NC(=O)[C@H](Cc1ccccc1)NC(=O)[C@@H]1CCCN1C(=O)[C@@H](N)CS)C(=O)N[C@@H](CCCCN)C(=O)N[C@H](C(=O)NCC(=O)N[C@H](C(=O)O)C(C)C)C(C)C` [β-22] (H-CPFSSDDQFCLKVGV-OH), for which the “oxidative stability of emulsion at 20 °C compared to α-10, α-12 and γ-1 (in words)” value in series [2] was “significantly more oxidatively stable”. In addition, the Solubility of peptides result in series [1] was “Soluble”. On to FDVIGGTSTGGLLTAMITTPNENNRP [γ-36], for which the “oxidative stability of emulsion (generation of PBN-lipid spin adducts, in words, Fig. 4)” value in series [2] is given as “highest oxidative stability”. Moreover, in series [1], the Solubility of peptides entry is given as “Soluble”.

As for SSDDQFCLKVGVV [γ-40], the “oxidative stability of emulsion (generation of PBN-lipid spin adducts, in words, Fig. 4)” value in series [2] is “highest oxidative stability”. The Solubility of peptides entry in series [1] is “Cloudy”.

For FIPLSTNIFEDQLLNIQFNIPT [β-23], the Solubility of peptides entry in series [1] is “Cloudy”. Turning to GIKGIIPAIILEFLEGQLQEVDNNKDAR [γ-1], the “oxidative stability of emulsion (generation of PBN-lipid spin adducts, in words, Fig. 4)” value in series [2] was “lowest oxidative stability”. For the same compound, in series [1], the Solubility of peptides result is “Soluble”.
